In patent publication US20240376154A1, “BIS-INTERCALATING PEPTIDES, CONJUGATES AND METHODS OF USE” (ZYMEWORKS BC INC., priority 2023, published 2024):

Legend:
[1] = Lipophilicity by experimental HPLC retention time; type: physicochemical; conditions: HPLC retention time as measure of lipophilicity; C18, 10 to 90% CH3CN/H2O with 0.1% FA over 25 min
Experimental: The ability to kill neighboring cells (i.e. bystander effect) is an important property for ADC payloads. For a payload comprising a compound of Formula I to be capable of bystander killing, membrane permeability (or transport) is required and the ability of compounds of Formula I to cross cell membranes and exert a cytotoxic effect was expected to be heavily influenced by lipophilicity.
Compounds were analyzed using an Agilent 1260 HPLC (Agilent Technologies, Inc., Santa Clara, CA) equipped with a Diode array detector and using a Phenomenex Kinetex EVO C18 150×4.6, 2.6 μm column (Phenomenex, Torrance, CA), eluting with 10 to 90% CH3CN/H2O with 0.1% FA over 25 min.

herring sperm DNA = test: DNA melting temperature by differential scanning calorimetry (DSC); type: binding; conditions: for DNA melt (° C.): DSC, herring sperm DNA, DNA melting temperature = 68° C.
Experimental: Representative compounds prepared as described in Example 2 were assessed in two complementary DNA-binding assays. Increased melting temperature of herring sperm DNA was measured using differential scanning calorimetry (DSC) and binding kinetics were determined by surface plasmon resonance (SPR) using a short DNA hairpin sequence.
DSC experiments were conducted as described in Leng, 2003, Nucleic Acids Res., 31 (21): […], using a Nano DSC (TA Instruments, New Castle, DE) and analyzed using the NanoAnalyze™ software package. Herring sperm DNA solution (Invitrogen 15634017, 10 mg/mL) was diluted to 1 mg/mL (1.4 mM base pair) in BPE buffer (6 mM Na2HPO4, 2 mM NaH2PO4, 1 mM Na4EDTA, pH 7.0). Test articles (20 μL, 10 mM in DMSO) were added and allowed reach equilibrium binding (>3 h), any insoluble material was removed by low-speed centrifugation, then samples were heated from 25 to 110° C. at a scan rate of 1° C./min. Melting curves were plotted and melting temperature was determined using NanoAnalyze™.

[2] = system: tumour cells (at least 4 of a panel of ovarian, breast, lung, pancreatic, placenta, colon cell lines); test: In vitro cytotoxicity (cell proliferation, CellTiter-Glo), average over tumour cell line panel; type: cell-based; conditions: average pIC50 on all cell lines tested; 5 nights incubation; CellTiter-Glo
Experimental: The ability of representative compounds of Formula I to inhibit proliferation of tumour cells in vitro was evaluated in at least 4 of the following cell lines: OVCAR-3 (ovarian, ATCC), SKOV-3 (ovarian, ATCC), IGROV-1 (ovarian, national research council of Canada (NRC)), OV-90 (ovarian, ATCC), OVKATE (Ovarian, Japanese Collection of Research Bioresources (JCRB) (JCRB1044)), JIMT-1 (breast, NRC), SK-BR-3 (breast, ATCC), T-47D (breast, ATCC), ZR-75-1 (breast, ATCC), MDA-MB-468 (breast, AddexBio), BT-20 (breast, ATCC), BT-474 (breast, NRC), MDA-MB-175 (breast, AddexBio), A549 (lung, collaborator), NCI-H226 (lung, NRC), NCI-H661 (lung, NRC), NCI-H1573 (lung, ATCC). NCI-H1563 (lung, ATCC), H358 (lung, collaborator), EBC-1 (lung, Xenotech), H1299 (lung, NRC), NCI-H292 (lung, ATCC), HCC817 (lung, ATCC), NCI-H441 (lung, ATCC), MIA-PaCa-2 (pancreatic, ATCC), BxPC-3 (pancreatic, ATCC), Panc-1 (pancreatic, ATCC), AsPC-1 (pancreatic, ATCC), JEG-3 (placenta, AddexBio), HT-29 (colon, ATCC).
Cells were cultured per vendor instructions and in log-phase growth were detached by brief incubation in 0.05% trypsin, then resuspended in respective culturing media at 20,000 cells/mL (except for ZR-75 cells, which were resuspended at 10,000 cells/mL). 50 μL/well (˜1000 cells/well) were transferred to sterile tissue culture (TC)-treated 384-well plates (ThermoFisher Scientific, Catalogue #164610) and incubated overnight at 37° C. with 5% CO2 to allow the cells to adhere to the plate surface. The next day, in a sterile, V-bottom, 96-well plate, test articles were titrated 1:3 in complete growth medium, creating a 10-point dose response titration with compounds at 3.5-times the desired final concentration. 20 μL from each dilution were added to the 384-well plate containing the seeded cells and these plates were incubated at 37° C. with 5% CO2 for 5 nights. Cell viability was quantified by first incubating with 15 μL/well of CellTiter-Glo® (Promega, Catalogue #G7572) for 30 minutes, then measuring luminescence with a microplate luminometer (BioTek® Synergy™ H1 Microplate Reader). IC50 values were determined by GraphPad Prism (GraphPad Software, San Diego, CA).
The results are presented in Table 7.1 and discussed in Example 7. Table 7.1 presents the results as average pIC50 values. pIC50=−log (IC50), thus, for example, pIC50=9 is equivalent to IC50=1 nM, and pIC50=6 is equivalent to IC50=1 μM.

Compound | HPLC [1] [min] | DNA melt (° C.) (herring sperm DNA) | pIC50 (average) [2] | DNA binding (in words) (herring sperm DNA; only DSC data in Table 7.1)
CC(C)[C@H]1C(=O)NC[C@@H](NC(=O)c2nc3ccccc3cc2O)C(=O)N2CCCC[C@H]2C(=O)NCC(=O)N(C)CC(=O)N2CCCC[C@H]2C(=O)NC[C@@H](NC(=O)c2nc3ccccc3cc2O)C(=O)N2CCCC[C@H]2C(=O)NCC(=O)N(C)CC(=O)N1C [Compound 82] | 16.4 | 92 °C | 8.0 | 
CC(C)[C@H]1C(=O)N(C)C[C@@H](NC(=O)c2nc3ccccc3cc2O)C(=O)N2CCCC[C@H]2C(=O)NCC(=O)N(C)CC(=O)N(C)[C@@H](C(C)C)C(=O)N(C)C[C@@H](NC(=O)c2nc3ccccc3cc2O)C(=O)N2CCCC[C@H]2C(=O)NCC(=O)N(C)CC(=O)N1C [Compound 42, N,N′-((7R,11S,19aS,26R,30S,38aS)-11,30-diisopropyl-9,12,15,28,31,34-hexamethyl-6,10,13,16,19,25,29,32,35,38-decaoxohexatriacontahydro-2H,6H-dipyrido[1,2-a:1′,2′-q][1,4,7,10,13,17,20,23,26,29]decaazacyclodotriacontine-7,26-diyl)bis(3-hydroxyquinoline-2-carboxamide)] | 17.7 | 88 °C | 7.3 | 
CC(C)[C@H]1C(=O)NC[C@@H](NC(=O)c2nc3ccccc3cc2O)C(=O)N2CCCC[C@H]2C(=O)NCC(=O)N(C)CC(=O)N2CCC[C@H]2C(=O)NC[C@@H](NC(=O)c2nc3ccccc3cc2O)C(=O)N2CCCC[C@H]2C(=O)NCC(=O)N(C)CC(=O)N1C [Compound 77] | 15.0 | 88 °C | 6.9 | 
O=C(N[C@@H]1CNC(=O)[C@@H]2CCCCN2C(=O)COCCNC(=O)[C@@H]2CCCCN2C(=O)[C@H](NC(=O)c2nc3ccccc3cc2O)CNC(=O)[C@@H]2CCCCN2C(=O)COCCNC(=O)[C@@H]2CCCCN2C1=O)c1nc2ccccc2cc1O [Compound 409, N,N′-((7R,10aS,22aS,29R,32aS,44aS)-6,10,16,22,28,32,38,44-octaoxotetracontahydro-2H,19H-tetrapyrido[1,2-a1: 1′,2′-d: 1″,2″-k: 1′″,2′″-t][1,17]dioxa[4,7,11,14,20,23,27,30]octaazacyclodotriacontine-7,29-diyl)bis(3-hydroxyquinoline-2-carboxamide)] | 16.1 | 68^1 °C | inactive | did not demonstrate measurable DNA binding
CN1CC(=O)N2CCCC[C@H]2C(=O)NC[C@@H](NC(=O)c2nc3ccccc3cc2O)C(=O)N2CCCC[C@H]2C(=O)NCC(=O)N(C)CC(=O)N2CCCC[C@H]2C(=O)NC[C@@H](NC(=O)c2nc3ccccc3cc2O)C(=O)N2CCCC[C@H]2C(=O)NCC1=O [Compound 49, N,N′-((7R,10aS,22aS,29R,32aS,44aS)-18,40-dimethyl-6,10,16,19,22,28,32,38,41,44-decaoxotetratetracontahydrotetrapyrido[1,2-a:1′,2′-j:1″,2″-q:1″,2′″-z][1,4,7,10,13,17,20,23,26,29]decaazacyclodotriacontine-7,29-diyl)bis(3-hydroxyquinoline-2-carboxamide)] | 15.7 | 97 °C | 7.2 | 
CC(C)[C@H]1COC[C@@H](NC(=O)c2nc3ccccc3cc2O)C(=O)N2CCCC[C@H]2C(=O)NCC(=O)N(C)CC(=O)N(C)[C@@H](C(C)C)C(=O)OC[C@@H](NC(=O)c2nc3ccccc3cc2O)C(=O)N2CCCC[C@H]2C(=O)NCC(=O)N(C)CC(=O)N1C [Compound 203, N,N′-((7R,11S,19aS,26R,30S,38aS)-11,30-diisopropyl-12,15,31,34-tetramethyl-6,10,13,16,19,25,32,35,38-nonaoxodotriacontahydro-2H,6H,10H,25H-dipyrido[2,1-b1: 2′,1′-1][1,17]dioxa[4,7,10,13,20,23,26,29]octaazacyclodotriacontine-7,26-diyl)bis(3-hydroxyquinoline-2-carboxamide)] | 20.2 | 96 °C | 8.5 | 
CN1CC(=O)N2CCCC[C@H]2COC[C@@H](NC(=O)c2nc3ccccc3cc2O)C(=O)N2CCCC[C@H]2C(=O)NCC(=O)N(C)CC(=O)N2CCCC[C@H]2C(=O)NC[C@@H](NC(=O)c2nc3ccccc3cc2O)C(=O)N2CCCC[C@H]2C(=O)NCC1=O [Compound 187, N,N′-((7R,10aS,22aS,29R,32aS,44aS)-18,40-dimethyl-6,16,19,22,28,32,38,41,44-nonaoxodotetracontahydro-6H-tetrapyrido[2,1-b1: 2′,1′-c: 2″,1″-1:2′″,1′″-s][1]oxa[4,7,10,13,17,20,23,26,29]nonaazacyclodotriacontine-7,29-diyl)bis(3-hydroxyquinoline-2-carboxamide)] | 16.6 | 94 °C | 8.0 | 
CC(C)[C@H]1C(=O)NC[C@@H](NC(=O)c2nc3ccccc3cc2O)C(=O)N2CCCC[C@H]2C(=O)NCC(=O)N(C)CC(=O)N(C)[C@@H](C2CCCCC2)C(=O)NC[C@@H](NC(=O)c2nc3ccccc3cc2O)C(=O)N2CCCC[C@H]2C(=O)NCC(=O)N(C)CC(=O)N1C [Compound 97, N,N′-((7R,11S,19aS,26R,30S,38aS)-11-cyclohexyl-30-isopropyl-12,15,31,34-tetramethyl-6,10,13,16,19,25,29,32,35,38-decaoxohexatriacontahydro-2H,6H-dipyrido[1,2-a:1′,2′-q][1,4,7,10,13,17,20,23,26,29]decaazacyclodotriacontine-7,26-diyl)bis(3-hydroxyquinoline-2-carboxamide)] | 18.9 | 86 °C | 8.4 | 
CC[C@H](C)[C@H]1C(=O)NC[C@@H](NC(=O)c2nc3ccccc3cc2O)C(=O)N2CCCC[C@H]2C(=O)NCC(=O)N(C)CC(=O)N(C)[C@@H]([C@@H](C)CC)C(=O)O[C@H](C)[C@@H](NC(=O)c2nc3ccccc3cc2O)C(=O)N2CCCC[C@H]2C(=O)NCC(=O)N(C)CC(=O)N1C [Compound 30, N,N′-((7R,8R,11S,19aS,26R,30S,38aS)-11,30-di((S)-sec-butyl)-8,12,15,31,34-pentamethyl-6,10,13,16,19,25,29,32,35,38-decaoxotetratriacontahydro-2H,6H,10H-dipyrido[2,1-b1: 2′,1′-l][1]oxa[4,7,10,13,17,20,23,26,29]nonaazacyclodotriacontine-7,26-diyl)bis(3-hydroxyquinoline-2-carboxamide)] | 20.9 | 85 °C | 8.3 | 
